According to patent publication US7271173B2, “Mixed kappa/mu opioids and uses thereof” (The McLean Hospital Corporation, priority 2002, dated 2007):
Read-outs that look alike come from different tables or passages of the source.

Tests used:
[1] = molecular target: T1, human mu opioid receptor (Homo sapiens, UniProt P35372); test: Radioligand binding, [3H]DAMGO (μ), CHO membranes
T1 construct: expressed in transfected cells; host or cells: CHO cells, stably transfected
Excerpt: (§1) Compounds can be characterized in radioligand receptor binding assays, using ligands that are specific for the mu, delta and kappa receptors. The binding assays may utilize guinea pig brain membranes or stably transfected Chinese Hamster Ovary (CHO) cells expressing each of the three opioid receptors. Membranes can be isolated from CHO cells that stably express either the human mu, delta or kappa opioid receptors. At approximately 80% confluence, the cells are harvested by the use of a cell scraper. The cells and media from the plates are centrifuged at 200×g for 10 mm at 4° C.; resuspended in 50 mM Tris-HCl, pH 7.5; homogenized by the use of a Polytron; centrifuged at 48,000×g for 20 mm at 4° C.; and resuspended in 50 mM Tris-HCl, pH 7.5, at a protein concentration of 5-10 mg/ml, as determined by the Bradford method. The membranes are stored frozen, at −80° C. until use.
(§2) Cell membranes are incubated at 25° C. with the radiolabeled ligands in a final volume of 1 ml of 50 mM Tris-HCl, pH 7.5. […] Nonspecific binding is measured by inclusion of 1 μM naloxone. The binding can be terminated by filtering the samples through Schleicher & Scheull No. 32 glass fiber filters using a Brandel 48-well cell harvester. The filters are subsequently washed three times with 3 ml of cold 50 mM Tris-HCl, pH 7.5, and can be counted in 2 ml of Ecoscint A scintillation fluid. For [^3H]U69,593 binding, the filters are soaked in 0.1% polyethylenimine for at least 30 minutes before use. IC50 values can be calculated by a least squares fit to a logarithm-probit analysis. Ki values of unlabeled compounds are calculated from the equation Ki=(IC50)/1+S where S=(concentration of radioligand) (Kd of radioligand). Cheng and Prusoff, Biochem. Pharmacol. 22:3099 (1973). Alternatively, guinea pig brain membranes can be prepared and used as previously described in Neumeyer, et al., J. Med. Chem. 43:114 (2000).
(§3) As described in Example 12, 0.5 milligrams of protein per sample was incubated with 12 different concentrations of the compounds in the presence of receptor-specific radioligands at 25° C. in a final volume of 1 mL (50 mM Tris-HCl buffer, pH 7.5). Nonspecific binding was determined using 10 μM naloxone. The data in Table 1 are the mean values SEM from three experiments performed in triplicate.
as §3, with “Four 10-ketomorphinan compounds, see Table 2, were evaluated for their affinity and selectivity at the three opioid receptors. As” for “As”, “Table 2” for “Table 1”

[2] = molecular target: T2, human delta opioid receptor (Homo sapiens, UniProt P41143); test: Radioligand binding, [3H]naltrindole (δ), CHO membranes
T2 construct: expressed in transfected cells; host or cells: CHO cells, stably transfected
Excerpt: as §1, §2, §3
as §3, with “Four 10-ketomorphinan compounds, see Table 2, were evaluated for their affinity and selectivity at the three opioid receptors. As” for “As”, “Table 2” for “Table 1”

[3] = molecular target: T3, human kappa opioid receptor (Homo sapiens, UniProt P41145); test: Radioligand binding, [3H]U69,593 (κ), CHO membranes; details: for Selectivity δ:κ / Selectivity μ:κ: ratio of Ki values
T3 construct: expressed in transfected cells; host or cells: CHO cells, stably transfected
Excerpt: as §1, §2, §3
as §3, with “Four 10-ketomorphinan compounds, see Table 2, were evaluated for their affinity and selectivity at the three opioid receptors. As” for “As”, “Table 2” for “Table 1”

[4] = molecular target: T4, kappa receptor (Homo sapiens, UniProt P41145); test: [35S]GTPgammaS binding assay, kappa receptor; format: biochemical; details: CHO membranes
T4 construct: expressed in transfected cells; host or cells: CHO cell lines
Procedure: (§4) Membranes from the CHO cell lines, expressing either the mu, delta or kappa receptor, are incubated with 12 concentrations of each opioid for 60 minutes at 30° C. in a final volume of 0.5 ml of assay buffer (50 mM Tris-HCl, 3 mM MgCl2, 0.2 mM EGTA, 100 mM NaCl, pH 7.5) containing 3 μM GDP and 0.08 nM [^35S]GTPgammaS. Basal binding can be determined in the presence of GDP and the absence of opioids, and nonspecific binding can be determined by including 10 μM unlabeled […]. The incubation can be terminated by filtration under vacuum through glass fiber filters, followed by three washes with 3 ml ice-cold 50 mM Tris-HCl, pH 7.5. Samples can be allowed to equilibrate overnight and can be counted in 2 ml Ecoscint A scintillation fluid for 2 minutes in a liquid scintillation counter.
(§5) For [^35S]GTPgammaS binding assays, percent stimulation of [^35S]GTPgammaS binding is defined as [(opioid-stimulated binding-basal binding) basal binding]×100. Percent stimulation is plotted as a function of opioid concentration (log scale), and EC50 and Emax values are determined by linear regression analysis. All data is compared across conditions using ANOVA and non-paired two-tailed Student's tests.

[5] = molecular target: T5, mu receptor (Homo sapiens, UniProt P35372); test: [35S]GTPgammaS binding assay, mu receptor; format: biochemical; details: CHO membranes
T5 construct: expressed in transfected cells; host or cells: CHO cell lines
Procedure: as §4, §5

[6] = read-out: Ki (nM) ± SE [3H]Naltrindole (δ), Table 2, CHO membranes, 25° C., mean ± SEM of three experiments in triplicate
[7] = read-out: Ki (nM) ± SE [3H]DAMGO (μ), Table 1, CHO membranes, 25° C., mean ± SEM of three experiments in triplicate
[8] = read-out: Ki (nM) ± SE [3H]Naltrindole (δ), Table 1, CHO membranes, 25° C., mean ± SEM of three experiments in triplicate
[9] = Table 1, CHO membranes, 25° C., mean ± SEM of three experiments in triplicate, read-out: Ki (nM) ± SE [3H]U69,593 (κ)
[10] = Table 1, CHO membranes, 25° C., mean ± SEM of three experiments in triplicate

T4 sequence (P41145 whole entry): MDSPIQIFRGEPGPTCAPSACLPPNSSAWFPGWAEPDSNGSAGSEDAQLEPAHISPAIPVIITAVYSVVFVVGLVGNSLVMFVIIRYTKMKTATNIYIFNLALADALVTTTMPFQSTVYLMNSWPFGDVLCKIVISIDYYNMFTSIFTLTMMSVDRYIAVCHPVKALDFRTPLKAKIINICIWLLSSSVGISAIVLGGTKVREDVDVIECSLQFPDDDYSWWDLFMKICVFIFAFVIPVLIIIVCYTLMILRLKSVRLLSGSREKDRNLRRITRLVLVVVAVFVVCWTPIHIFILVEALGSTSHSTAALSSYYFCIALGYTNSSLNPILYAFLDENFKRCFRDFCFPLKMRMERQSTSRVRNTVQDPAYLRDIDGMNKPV
T3 sequence (P41145 whole entry): as above
T2 sequence (P41143 whole entry): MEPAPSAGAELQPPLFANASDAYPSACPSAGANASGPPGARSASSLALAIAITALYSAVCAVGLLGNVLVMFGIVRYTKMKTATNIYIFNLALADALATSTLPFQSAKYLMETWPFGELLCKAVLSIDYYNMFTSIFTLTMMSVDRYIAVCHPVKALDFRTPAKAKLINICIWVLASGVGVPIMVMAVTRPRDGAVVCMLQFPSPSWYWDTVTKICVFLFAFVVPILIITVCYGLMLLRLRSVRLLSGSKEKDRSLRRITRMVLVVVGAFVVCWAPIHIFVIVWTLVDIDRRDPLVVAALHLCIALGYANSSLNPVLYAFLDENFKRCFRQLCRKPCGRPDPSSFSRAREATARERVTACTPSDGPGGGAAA
T1 sequence (P35372 whole entry): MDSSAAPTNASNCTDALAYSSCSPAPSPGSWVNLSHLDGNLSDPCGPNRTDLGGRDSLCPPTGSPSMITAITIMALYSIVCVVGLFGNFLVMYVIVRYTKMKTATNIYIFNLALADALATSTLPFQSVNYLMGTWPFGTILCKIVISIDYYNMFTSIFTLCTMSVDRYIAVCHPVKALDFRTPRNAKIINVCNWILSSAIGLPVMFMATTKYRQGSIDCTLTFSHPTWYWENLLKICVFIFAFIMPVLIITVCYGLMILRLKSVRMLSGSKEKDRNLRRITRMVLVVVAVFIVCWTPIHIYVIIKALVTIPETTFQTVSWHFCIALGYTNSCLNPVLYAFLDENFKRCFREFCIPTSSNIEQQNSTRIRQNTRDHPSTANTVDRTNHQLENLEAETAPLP
T5 sequence (P35372 whole entry): as above

SMILES	Ki [2, 6] [nM]	Selectivity δ:κ ([3]; Table 2)	Selectivity μ:κ ([3]; Table 2)	Ki [1] [nM]	Ki [3] [nM]	Ki [1, 7] [nM]	Ki [2, 8] [nM]	Ki [3, 9] [nM]	Selectivity δ:κ ([3]; Table 1)	Selectivity μ:κ ([3]; Table 1)	also measured
O=C1c2ccc(O)cc2[C@@]23CCCC[C@H]2[C@@H]1N(CC1CCC1)CC3 [Compound 74, 3-Hydroxy-10-keto-N-cyclobutylmethylmorphinan]	260 ± 55	540	6.9								Ki ([1]; read-out: Ki (nM) ± SE [3H]DAMGO (μ), Table 2, CHO membranes, 25° C., mean ± SEM of three experiments in triplicate): 3.3 ± 0.26 nM; Ki ([3]; Table 2, CHO membranes, 25° C., mean ± SEM of three experiments in triplicate, read-out: Ki (nM) ± SE [3H]U69,593 (κ)): 0.48 ± 0.027 nM
COCCN1CC[C@]23CCCC[C@H]2[C@H]1C(=O)c1ccc(O)cc13 [Compound 76, 3-Hydroxy-10-keto-N-(2-methoxyethyl)morphinan]		590	5.3	90 ± 10	17 ± 0.6						Ki [2]: > 10000 nM
O=C1c2ccc(O)cc2[C@@]23CCCC[C@H]2[C@@H]1N(CCc1ccccc1)CC3 [Compound 77, 3-Hydroxy-10-keto-N-(2-phenylethyl)morphinan]	9.7 ± 0.34	1.3	0.08	0.63 ± 0.07	7.7 ± 0.19						
C#CCN1CC[C@]23CCCC[C@H]2[C@H]1C(=O)c1ccc(O)cc13 [Compound 73, 3-Hydroxy-10-keto-N-propargylmorphinan]	2300 ± 190	38	3.2	190 ± 4.4	60 ± 1.7						
CN1CC[C@]23CCCC[C@H]2[C@H]1Cc1cc2sc(N)nc2cc13 [Compound 69]						130 ± 5.8	1100 ± 30	29	38	4.5	
CN1CC[C@]23CCCC[C@H]2[C@H]1Cc1c3ccc2nc(N)sc12 [Compound 70]								6.4 ± 0.53	30	0.17	Ki [1, 10]: 1.1 ± 0.13 nM; Ki [2, 10]: 190 ± 9.7 nM
Nc1nc2cc3c(cc2s1)C[C@@H]1[C@@H]2CCCC[C@]32CCN1CC1CC1 [Compound 71]						1.5 ± 0.21	29 ± 2	0.049 ± 0.0046	590	30	Efficacy (agonist, partial agonist, antagonist) at κ receptor [4]: κ and μ agonist; Relative potency κ versus μ [4]: more potent at κ than at μ; Efficacy (agonist, partial agonist, antagonist) at μ receptor [5]: κ and μ agonist
Nc1nc2cc3c(cc2s1)C[C@@H]1[C@@H]2CCCC[C@]32CCN1CC1CCC1 [Compound 72]						7.1 ± 0.47	230 ± 21	0.79 ± 0.02	290	9.0	Efficacy (agonist, partial agonist, antagonist) at κ receptor [4]: κ agonist; Efficacy (agonist, partial agonist, antagonist) at μ receptor [5]: weak agonist and antagonist activity
O=C1c2ccc(O)cc2[C@@]23CCCC[C@H]2[C@@H]1N(CCCF)CC3 [Compound 75, 3-Hydroxy-10-keto-N-(3-fluoropropyl)morphinan]	690 ± 171			20 ± 4.8							
